Measurements as given in patent publication US9546201B2, “MUC-1 cytoplasmic domain peptides as inhibitors of cancer” (DANA-FARBER CANCER INSTITUTE, INC., priority 2008, dated 2017).
Where two headings read alike, the source gives them in different places. Where a SMILES comes first, the peptide text is derived from it. Where no end group is shown, it is not given here. [ ]: non-standard residue; d: D form.

Legend:
MUC1-C in ZR-75-1 cells = target: T1, MUC1-C in ZR-75-1 cells (Homo sapiens, UniProt P15941); experiment: Immunoblot of whole cell and nuclear lysates, ZR-75-1; format: cell-based; conditions: 5 μM peptide for 3 d; for decreases in nuclear MUC1-C levels: nuclear lysates; for cellular MUC1-C levels: whole cell lysates
T1 construct: translated as a single polypeptide and cleaved into N- and C-terminal subunits in the endoplasmic reticulum; endogenous in cells; host or cells: ZR-75-1 and MCF-7 human breast cancer cells
T1 sequence (P15941 1098-1255 limits assumed): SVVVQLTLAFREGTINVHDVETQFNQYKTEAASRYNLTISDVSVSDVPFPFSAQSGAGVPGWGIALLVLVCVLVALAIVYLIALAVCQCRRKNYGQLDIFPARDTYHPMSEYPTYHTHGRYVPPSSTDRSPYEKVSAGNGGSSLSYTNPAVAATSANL
Description: FIGS. 2A-C. MUC1/CQC peptide blocks nuclear localization of MUC1-C. (FIG. 2A) ZR-75-1 cells were incubated with 5 μM FITC-labeled MUC1/CQC peptide for the indicated times and then analyzed by flow cytometry. The mean fluorescence index (MFI) is included in each of the panels. (FIGS. 2B-C) ZR-75-1 (FIG. 2B) and MCF-7 (FIG. 2C) cells were incubated in the presence of 5 μM MUC1/CQC or MUC1/AQA peptide for 3 d. Whole cell lysates (WCL) (left panels) and nuclear lysates (right panels) were immunoblotted with the indicated antibodies.
Whole cell and nuclear lysates were prepared as described (Leng et al., 2007). Soluble proteins were subjected to immunoprecipitation with anti-Flag (Sigma, St. Louis, Mo.). Immunoprecitates and soluble proteins were analyzed by immunoblotting with anti-His (Cell Signaling Technology, Danvers, Mass.), anti-GFP (Millipore, Danvers, Mass.), anti-Flag, anti-MUC1-C (Abl; NeoMarkers, Fremont, Calif.), anti-lamin B (EMD, La Jolla, Calif.) or anti-β-actin (Sigma). Reactivity was detected with horseradish peroxidase-conjugated second antibodies and chemiluminescence.
Human ZR-75-1 and MCF-7 breast cancer cells overexpress endogenous MUC1, and thus represent potential models for evaluating effects of the MUC1/CQC peptide (Ramasamy et al., 2007). To assess uptake, the ZR-75-1 cells were incubated with 5 μM FITC-MUC1/CQC peptide (FIG. 2A). […] Oligomerization of MUC1-C is necessary for its nuclear import (Leng et al., 2007). Treatment of ZR-75-1 cells with the MUC1/CQC or the MUC1/AQA peptide had no effect on cellular MUC1-C levels (FIG. 2B). […] These findings indicate that the MUC1/CQC peptide blocks MUC1-C oligomerization and thereby targeting of MUC1-C to the nucleus.

[1] = test system: ZR-75-1 breast tumor xenografts
Description: FIGS. 5A-C. […] (FIG. 5A) Four to six week-old female Balb-c nu/nu mice were implanted with 17-β-estradiol plugs. After 24 h, ZR-75-1 breast cancer cells (imbedded in matrigel) were injected subcutaneously in the flank. When tumors were ˜150 mm3, the mice were paired matched into groups and injected intraperitoneally with PBS (vehicle control; closed squares), 50 mg/kg MUC1/AQA peptide (control peptide; open squares) or 10 mg/kg MUC1/CQC peptide (closed triangles) daily for 21 d. Another group was treated with 50 mg/kg MUC1/CQC peptide daily (⇑) for 6 d (open triangles). Mice were weighed twice weekly and tumor measurements were performed every 4 d. (FIGS. 5B and 5C). On day 24 (asterisk), tumors harvested from the control group and the group treated with 50 mg/kg/d×6d were stained with H&E (FIG. 5B) and with an antibody against MUC1 (FIG. 5C).
(FIG. 6A) Mice were injected with ZR-75-1 cells as described in the legend to FIG. 5A. When tumors were ˜275 mm^3, the mice were paired matched into groups and injected intraperitoneally with PBS (vehicle control; open squares) or 30 mg/kg MUC1/CQC peptide (closed squares) daily for 21 days (solid horizontal bar). […] The treated mice were monitored until day 52 when tumors were harvested for H&E staining (FIG. 6B).
Balb-c nu/nu female mice (Charles River Laboratories, Wilmington, Mass.), 4-6 weeks old weighing 18-22 grams, were implanted subcutaneously with 17-β-estradiol plugs (0.72 mg; Innovative Research, Sarasota, Fla.) using a trocar gun. After 24 h, 1×10^7 ZR-75-1 cells imbedded in Matri-Gel (BD Biosciences) were injected subcutaneously in the flank. When tumors were detectable at ˜150 mm^3 (Cohort 1) or 275 mm^3 (Cohort 2), the mice were pair matched into treatment and control groups. Each group contained 5 mice, each of which was ear tagged and followed throughout the study. Initial dosing was administered at the time of pair matching (day 1). Phosphate-buffered saline (vehicle), MUC1/CQC peptide and MUC1/AQA peptide were administered daily by intraperitoneal injection. Mice were weighed twice weekly, and tumor measurements were performed using calipers every 4 d. Tumor volume (V) was calculated using the formula V=W2×L/2, where W and L are the smaller and larger diameters, respectively. At sacrifice, the mice were perfused with saline and then phosphate-buffered formalin by cardiac administration. Tumors were excised, immersion fixed for 4 h, dehydrated through a graded series of ethanols, and processed for routine paraffin embedding. Tumors were evaluated by H&E staining and for immunoperoxidase staining with anti-MUC1 as described (Kufe, 1984).
To determine if administration of the MUC1/CQC peptide is associated with effects on body weight, five female nude (nu/nu) mice were injected intraperitoneally (IP) once each day at a dose of 50 mg/kg. […] To assess anti-tumor activity, ZR-75-1 cells (1×10^7) were implanted subcutaneously into the flanks of nude mice. After 12 d, mice bearing tumors of approximately 150 mm^3 were treated with the MUC1/CQC peptide at doses of 10 and 50 mg/kg/d. As controls, mice were treated with vehicle alone or with the MUC1/AQA peptide. […] To assess in part the basis for the activity, tumors harvested from control and treated mice were examined by histopathology. […] Sections of the tumors were also stained with an antibody against MUC1.
Studies were also performed on larger tumors (˜275 mm^3) (FIG. 6A).

[2] = test system: multiple carcinoma cell lines; experiment: Inventors' recent studies of MUC1 C-terminal peptides on carcinoma cell lines; format: cell-based; conditions: L-amino acid peptide
Text: However, these MUC1-C-terminal peptides consists of L-amino acids. […] Consequently, they have generated an all-dextro form of the above described shorter MUC1 C-terminal peptide, in which the L-amino acids were changed to D-amino acids (GO-203). Moreover, to determine the minimum amino acid residues from the MUC1-C-terminal region that are required to retain the cell killing activity, they have also generated many different versions of GO-203 as described in FIG. 8.

[3] = 30 mg/kg/d×21 d, tumors harvested on day 52

Compound	decreases in nuclear MUC1-C levels (MUC1-C in ZR-75-1 cells)	cellular MUC1-C levels (MUC1-C in ZR-75-1 cells)	tumor growth ([1]; 10 mg/kg/d×21 d IP, tumors ~150 mm3, compared with MUC1/AQA 50 mg/kg/d)	MUC1 expression in tumors [1, 3]	tumor histopathology (H&E) [1, 3]	tumor growth ([1]; 30 mg/kg/d×21 d IP, larger tumors ~275 mm3)	tumor growth during treatment ([1]; 50 mg/kg/d IP, initial 7 d, tumors ~150 mm3)	tumor growth ([1]; 10 and 30 mg/kg/d for 21 d)	tumor histopathology (H&E) ([1]; 10 and 50 mg/kg, compared with vehicle or MUC1/AQA)	MUC1 expression in tumors (anti-MUC1 staining) ([1]; tumors ~150 mm3 cohort, compared with control and MUC1/AQA)	growth of carcinoma cell lines [2]	anti-tumor activity ([1]; 50 mg/kg/d for 21 d)
CC[C@H](C)[C@H](NC(=O)[C@H](CC(=O)O)NC(=O)[C@H](CC(C)C)NC(=O)[C@H](CCC(N)=O)NC(=O)CNC(=O)[C@H](Cc1ccc(O)cc1)NC(=O)[C@H](CC(N)=O)NC(=O)[C@H](CCCCN)NC(=O)[C@H](CCCNC(=N)N)NC(=O)[C@H](CCCNC(=N)N)NC(=O)[C@H](CS)NC(=O)[C@H](CCC(N)=O)NC(=O)[C@H](CS)NC(=O)[C@@H](CCCNC(=N)N)NC(=O)[C@@H](CCCNC(=N)N)NC(=O)[C@@H](CCCNC(=N)N)NC(=O)[C@@H](CCCNC(=N)N)NC(=O)[C@@H](CCCNC(=N)N)NC(=O)[C@@H](CCCNC(=N)N)NC(=O)[C@@H](CCCNC(=N)N)NC(=O)[C@@H](CCCNC(=N)N)NC(=O)[C@H](N)CCCNC(=N)N)C(=O)N[C@@H](Cc1ccccc1)C(=O)N1CCC[C@H]1C(=O)O [MUC1/CQC] (H-[dR][dR][dR][dR][dR][dR][dR][dR][dR]CQCRRKNYGQLDIFP-OH; N-terminus and C-terminus assumed)	decreases in nuclear MUC1-C levels	no effect	slowed growth	down-regulation of MUC1 expression	extensive areas of necrosis	arrest of tumor growth	blocked growth	effective in abrogating tumor growth	markedly necrotic	marked down-regulation of MUC1 expression	active in inhibiting growth of multiple carcinoma cell lines	–
MUC1/AQA: control peptide in which the CQC motif was altered to AQA, with poly-dArg transduction domain; SEQ ID NO: 60 ([dR][dR][dR][dR][dR][dR][dR][dR][dR]AQARRKNYGQLDIFP) [reference compound]	not	no effect	–	–	–	–	–	–	–	–	–	no anti-tumor activity
